Test results published in patent US20230364057A1, “BACTERIAL DNA GYRASE INHIBITORS AND METHODS OF USE THEREOF” (THE FLORIDA INTERNATIONAL UNIVERSITY BOARD OF TRUSTEES, priority 2022, published 2023).

Columns and labels:
E. coli DNA gyrase [1] = biological target: T1, E. coli DNA gyrase (Escherichia coli (strain K12), UniProt P0AES4+P0AES6); assay: biochemical; assay type: biochemical
E. coli DNA gyrase [2] = biological target: T1, E. coli DNA gyrase; assay: Agarose gel-based DNA gyrase inhibition assay; assay type: biochemical
Description: 100 ng of DNA gyrase was used to supercoil the rx pAB1 in the presence of different concentrations of a gyrase inhibitor. […] Samples were analyzed by electrophoresis in 1% w/v agarose gels followed by ethidium bromide staining and photographed under UV light.

[3] = IC50 ([…]-50 µM), bin of Table 2
[4] = IC50 (50-200 µM), bin of Table 2

SMILES	IC50 (E. coli DNA gyrase [1]; IC50 (≤15 µM) IC50, Table 2)	inhibition of E. coli DNA gyrase activities (E. coli DNA gyrase [1])	inhibition of E. coli DNA gyrase activities (E. coli DNA gyrase [2]; 50 µM of compounds)	inhibition of E. coli DNA gyrase activities (E. coli DNA gyrase [2]; 200 µM of compounds)	IC50 (E. coli DNA gyrase [1]; [3])	IC50 (E. coli DNA gyrase [1]; [4])
O=C(O)CCCN1C(=O)C(=Cc2ccc(-c3nc4ccccc4s3)o2)SC1=S (single isomer, unassigned) [Compound 41]	1.48 µM					
O=C(/C=C/c1ccc(O)c(O)c1)O[C@@H]1CC(O)(C(=O)O)C[C@@H](OC(=O)/C=C/c2ccc(O)c(O)c2)C1O (stereo partly drawn) [3,5-dicaffeoylquinic acid, reference compound]		strongly inhibit				
CCOC(=O)c1cc(-c2ccc(N3CCOCC3)cc2)nn1-c1ccccc1C(=O)O [Compound 7]			completely inhibited	completely inhibited	25 to 50 µM	
COc1ccc(C2=NN(c3nc(-c4ccccc4)c(CC(=O)O)s3)C(c3ccco3)C2)cc1 (stereo not drawn) [Compound 10]				completely inhibited		50 to 200 µM
N#CC(=Cc1ccc(C(=O)O)cc1)c1nc2sc3c(c2c(=O)[nH]1)CCCC3 [Compound 12]			completely inhibited	completely inhibited	25 to 50 µM	
Cc1cc(C)c(-c2nc3ccccc3s2)[nH]1 [Compound 13]				almost completely inhibited		50 to 200 µM
O=C(Nc1nc2cc3c(cc2s1)OCO3)C1CC1 [Compound 15]				completely inhibited		50 to 200 µM
CCc1ccc(S(=O)(=O)/N=C2/C=C(Nc3cccc(C(=O)O)c3)C(=O)c3ccccc32)cc1 [Compound 17]				completely inhibited		50 to 200 µM
Cc1n[nH]c(SC(Cc2ccc(-c3cccc(Cl)c3)o2)C(=O)O)n1 (stereo not drawn) [Compound 18]			completely inhibited	completely inhibited	25 to 50 µM	
CCc1ccc(OCC(=O)/N=c2/[nH]nc(-c3ccco3)s2)cc1 [Compound 22]				completely inhibited		50 to 200 µM
CC(C)(C)N1C(=O)N=C(O)/C(=C\c2ccc3c(c2)CCN3CCCCl)C1=O [Compound 23]			completely inhibited	completely inhibited	25 to 50 µM	
Cc1ccc(NC2=NC(=O)/C(=C/C=C/c3ccco3)S2)cc1 [Compound 24]			completely inhibited	completely inhibited	25 to 50 µM	
O=C(O)CCN1C(=O)/C(=C/c2ccc(-c3nc4ccccc4s3)o2)SC1=S [Compound 27]			completely inhibited	completely inhibited		
COc1ccc(-c2cc(-c3ccco3)nc(O)c2C#N)cc1OC [Compound 28]				almost completely inhibited		50 to 200 µM
Cc1cc(/C=C2\SC(=S)N=C2O)c(C)n1-c1ccccc1 [Compound 29]			completely inhibited	completely inhibited	25 to 50 µM	
CC(=O)NC1=NC(=O)/C(=C/c2cc(C)n(-c3cccc(C(=O)O)c3)c2C)S1 [Compound 31]				completely inhibited		50 to 200 µM
Cc1ccc(/C=C2\SC(N3CCN(C(c4ccccc4)c4ccccc4)CC3)=NC2=O)o1 [Compound 33]				completely inhibited		50 to 200 µM
O=C1/C(=C\c2ccc(O)cc2)SC(=S)N1/N=C/c1ccc(O)cc1 [Compound 35]			completely inhibited	completely inhibited	25 to 50 µM	
CN(C)c1ccc(/C=C2/C(=O)N(CCc3ccc(F)cc3)C(=O)N=C2O)cc1 [Compound 38]				completely inhibited		50 to 200 µM
CC(C)(CS(=O)(=O)[O-])NC(=O)CC[N+](C)(C)CCO [Compound 42]			completely inhibited	completely inhibited		
O=C(O)c1cc(N2N=C(C(F)(F)F)/C(=C/C=C/c3ccco3)C2=O)ccc1Cl [Compound 49]			almost completely inhibited	completely inhibited	25 to 50 µM	
O=C1NC(=S)S/C1=C/c1ccc(OC(=O)c2ccco2)cc1 [Compound 51]				almost completely inhibited		50 to 200 µM
CCCn1c(/C=C/c2ccco2)nc2ccccc21 [Compound 53]			almost completely inhibited	completely inhibited		50 to 200 µM
O=C(NCc1cccnc1)c1ccc(-c2cccc(Cl)c2Cl)o1 [Compound 56]				almost completely inhibited		50 to 200 µM
CN1C(=O)/C(=C\c2ccc(-c3ccccc3)o2)SC1=S [Compound 57]				almost completely inhibited		
Cc1cc(C)c2c(c1)C(/N=N/c1cc([N+](=O)[O-])ccc1C)C(O)=N2 (stereo not drawn) [Compound 114]			completely inhibited			
